The values below come from patent US9616051B2, “Drug targets to overcome de novo drug-resistance in multiple myeloma” (H. Lee Moffitt Cancer Center and Research Institute, Inc., priority 2008, dated 2017).

The test system of one assay is NCI-H929 (H929). Kind of assay: CT-Glo cytotoxicity assay, H929 cells. In kind it is cell-based, human. Particulars: Homo sapiens, NCI-H929, 72-h CT-Glo, average ± SD. The source says:
Compounds identified in Example 1 as the top scoring potential inhibitors for each of the two NES (20 each) were obtained from NCI and structures of these molecules confirmed using NMR and mass spectroscopy analysis, seen in FIGS. 4(A)-(C) and 5(A)-(D). The potential inhibitors were followed up using in vitro model cell cultures. MM cell lines NCI-H929 (H929) and RPMI-8226 (8226) were obtained from and tested for authenticity by the American Type Culture Collection (Manassas, Va.). All cell lines were grown as described previously (Turner, et al., Human topoisomerase IIalpha nuclear export is mediated by two CRM-1-dependent nuclear export signals. J Cell Sci 2004; 117: 3061-71).
(§1) The molecules with the highest docking scores were assayed for IC50 values. Cultures were tested for cytotoxicity using the CellTiter-Glo assay (CT-Glo cytotoxicity assay; Promega, Madison, Wis.), a luminescence-based homogeneous method for determining the number of viable cells in culture based on quantitation of the ATP present, which signals the presence of metabolically active cells (Corsino, et al., A novel class of cyclin-dependent kinase inhibitors identified by molecular docking act through a unique mechanism. J Biol Chem 2009; 284: 29945-55; Homsi, et al., Src activation in melanoma and Src inhibitors as therapeutic agents in melanoma. Melanoma Res 2009; 19: 167-75). All cells were assayed at log-phase growth conditions. Luminescence was measured with a Synergy 4 microplate reader (Bio-Tek Instruments, Inc., Winooski, Vt.). IC50 values were determined using a sigmoidal equilibrium model regression using XLfit version 5.2 (ID Business Solutions Ltd., Surrey, UK) (Corsino, et al., A novel class of cyclin-dependent kinase inhibitors identified by molecular docking act through a unique mechanism. J Biol Chem 2009; 284: 29945-55).

The next assay concerns HL-60. Briefly: CT-Glo cytotoxicity assay, HL-60 cells. The settings on record: Homo sapiens, 72-h CT-Glo. In kind it is cell-based. Here is the method:
as §1

In another assay the test system is MCF-7. Kind of assay: CT-Glo cytotoxicity assay, MCF-7 cells. In kind it is cell-based. The settings on record: Homo sapiens, MCF7, 72-h CT-Glo, average ± SD. The method, then: as §1
For the next assay, the system named is SK-UT. Kind of assay: CT-Glo cytotoxicity assay, SK-UT cells. Type of assay: cell-based. Particulars: 72-h CT-Glo, average ± SD. The method, then: as §1
The subject of a further assay is FLOW. Briefly: CT-Glo cytotoxicity assay, FLOW cells. Type of assay: cell-based. Particulars: 72-h CT-Glo, average ± SD. The method, then: as §1
In a further assay the test system is WI-38. Kind of assay: CT-Glo cytotoxicity assay, WI-38 cells. Type of assay: cell-based. Particulars: Homo sapiens, 72-h CT-Glo. The method, then:
as §1

The test system of a further assay is PBMC. Briefly: CT-Glo cytotoxicity assay, PBMC. Type of assay: cell-based. The settings on record: 72-h CT-Glo, average ± SD. Here is the method: as §1
The next assay concerns the target T1, topo IIα (Homo sapiens, UniProt P11388).
T1 construct: effect on the intracellular location of topo IIα in treated MM cells; endogenous in cells; host or cells: human multiple myeloma cells NCI-H929
Briefly: Immunofluorescence microscopy of intracellular location of topo IIα. In kind it is cell-based. The settings on record: 25 μM NES inhibitor. The method, then:
Slides were viewed with a fully automated, upright Zeiss Axio-ImagerZ.1 microscope (Carl Zeiss A G, Oberkochen, Germany). Briefly, the DAPI image was used as a mask to segment the nuclear region from the Alexa 594 image. The remaining portion of the Alexa 594 image represents the cytosol, and individual nucleus and cytosol images were analyzed.
H929 cells were mock treated with 0.1% DMSO in media or with 25 μM of NES inhibitor. The high density control cells, seen in FIG. 9(A) show high levels of topo II staining outside the nucleus, evidencing export of topo II from the nucleus.

In assay [1] the test system is cells modeling AML, breast cancer and fibroblastoma. Briefly: Combination of NCI-9138 with other drugs (FIG. 8). The settings on record: 25 μM with doxorubicin 2 μM, bortezomib 10 nM, dexamethasone, lenalidomide, melphalan, topotecan 10 μM. In kind it is cell-based.

Entries after “also recorded” stand apart in the source; their conditions may differ.

By IC50 is commonly meant the midpoint of a concentration-inhibition curve.

T1 sequence (P11388 whole entry): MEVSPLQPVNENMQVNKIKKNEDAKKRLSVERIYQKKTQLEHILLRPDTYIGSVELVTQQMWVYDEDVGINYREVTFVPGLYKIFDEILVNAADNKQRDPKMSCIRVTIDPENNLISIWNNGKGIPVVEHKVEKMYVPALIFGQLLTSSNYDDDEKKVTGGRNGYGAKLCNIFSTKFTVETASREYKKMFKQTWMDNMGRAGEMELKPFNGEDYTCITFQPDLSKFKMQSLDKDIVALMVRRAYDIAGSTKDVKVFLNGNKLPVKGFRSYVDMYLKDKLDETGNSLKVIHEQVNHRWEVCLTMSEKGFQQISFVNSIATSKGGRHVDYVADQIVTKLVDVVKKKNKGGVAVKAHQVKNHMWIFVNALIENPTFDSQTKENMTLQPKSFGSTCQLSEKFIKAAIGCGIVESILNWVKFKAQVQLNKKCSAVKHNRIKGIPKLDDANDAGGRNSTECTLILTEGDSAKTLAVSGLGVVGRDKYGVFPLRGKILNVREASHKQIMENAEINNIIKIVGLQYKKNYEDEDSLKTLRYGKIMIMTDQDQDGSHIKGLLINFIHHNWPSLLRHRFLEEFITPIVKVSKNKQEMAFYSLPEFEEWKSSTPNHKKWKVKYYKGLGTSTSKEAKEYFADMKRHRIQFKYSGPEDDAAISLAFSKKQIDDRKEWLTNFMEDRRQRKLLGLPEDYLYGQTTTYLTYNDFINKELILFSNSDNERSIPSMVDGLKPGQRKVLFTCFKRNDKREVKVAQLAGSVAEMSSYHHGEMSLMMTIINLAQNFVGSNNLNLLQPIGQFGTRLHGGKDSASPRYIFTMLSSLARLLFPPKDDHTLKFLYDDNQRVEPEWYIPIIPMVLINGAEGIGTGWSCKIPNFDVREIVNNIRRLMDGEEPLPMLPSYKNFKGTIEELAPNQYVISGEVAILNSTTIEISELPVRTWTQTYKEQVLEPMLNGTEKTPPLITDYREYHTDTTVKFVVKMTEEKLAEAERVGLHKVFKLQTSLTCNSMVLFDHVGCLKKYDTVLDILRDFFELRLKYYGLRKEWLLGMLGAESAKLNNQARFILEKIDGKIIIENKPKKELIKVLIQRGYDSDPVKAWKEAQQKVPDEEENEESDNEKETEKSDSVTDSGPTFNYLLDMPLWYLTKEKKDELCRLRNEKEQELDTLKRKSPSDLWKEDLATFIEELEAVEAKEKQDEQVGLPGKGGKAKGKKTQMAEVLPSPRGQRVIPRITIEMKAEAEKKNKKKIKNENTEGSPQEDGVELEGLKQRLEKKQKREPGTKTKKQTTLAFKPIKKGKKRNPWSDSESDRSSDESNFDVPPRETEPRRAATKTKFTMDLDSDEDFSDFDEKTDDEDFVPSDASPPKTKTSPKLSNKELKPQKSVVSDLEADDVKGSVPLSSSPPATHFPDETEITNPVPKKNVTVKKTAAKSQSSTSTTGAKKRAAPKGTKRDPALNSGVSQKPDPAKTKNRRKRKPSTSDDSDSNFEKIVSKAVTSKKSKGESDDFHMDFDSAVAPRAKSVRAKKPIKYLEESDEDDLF

On to `O=C1c2ccccc2C(=O)C1C(=O)C(c1ccccc1)c1ccccc1` [NCI-9138, 2-(diphenylacetyl)-1H-indene-1,3(2H)-dione], for which the IC50 worked out at 22.2 µM in the assay with NCI-H929 (H929); 28.3 µM with HL-60; 27.2 µM in the assay with MCF-7; 29.2 µM in the assay on SK-UT; 31.7 µM in the assay with FLOW; 30.1 µM in the assay on WI-38. Further, the IC50 in the assay on PBMC worked out at 32.5 µM. At topo IIα (20 hours, high-density (plateau) MM cells), the “Nuclear export of topo IIα by immunofluorescence” value is on record as “overlapping staining of topo II with DAPI”. The “Fold-increase nuclear topo IIα” value at topo IIα (H929 cells, nucleus v cytoplasm fluorescence vs untreated high-density controls) stood at 2.61 fold. The “Synergism of NCI-9138 in drug combinations” value in [1] is on record as “Synergism was seen with doxorubicin; also recorded: synergized exclusively with the topo II inhibitor doxorubicin”.
